Test results published in ChEMBL document CHEMBL4828768, “Talaromynoids A-I, Highly Oxygenated Meroterpenoids from the Marine-Derived Fungus Talaromyces purpureogenus SCSIO 41517 and Their Lipid Accumulation Inhibitory Activities” (J Nat Prod, 2021).
Calls of active or inactive are those of the source. The rule behind the calls is not given here.

Tests used:
[1] = biological target: T1, Tyrosine-protein phosphatase non-receptor type 1 (Homo sapiens) (UniProt P18031); assay: Inhibition of human recombinant PTP1B expressed in Escherichia coli assessed as inhibition of phosphatase activity by measuring p-nitrophenyl phosphate at 6.7 microg/ml measured after 60 mins; settings: dose 6.7 µg/ml
T1 sequence (whole entry): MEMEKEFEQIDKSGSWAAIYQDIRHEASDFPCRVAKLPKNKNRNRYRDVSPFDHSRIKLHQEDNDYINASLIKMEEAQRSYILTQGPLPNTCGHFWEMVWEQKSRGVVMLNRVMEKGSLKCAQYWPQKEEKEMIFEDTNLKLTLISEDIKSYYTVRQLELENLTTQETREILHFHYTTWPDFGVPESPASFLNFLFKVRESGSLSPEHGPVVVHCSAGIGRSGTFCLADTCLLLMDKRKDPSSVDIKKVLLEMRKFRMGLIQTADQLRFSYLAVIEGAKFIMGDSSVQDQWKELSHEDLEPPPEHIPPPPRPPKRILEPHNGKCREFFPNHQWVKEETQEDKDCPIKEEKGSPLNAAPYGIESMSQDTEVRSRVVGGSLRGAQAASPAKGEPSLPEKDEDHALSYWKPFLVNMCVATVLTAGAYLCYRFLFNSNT

[2] = biological target: Tyrosine-protein phosphatase non-receptor type 6 (Homo sapiens) (UniProt P29350); assay: Inhibition of human recombinant SHP1 expressed in Escherichia coli assessed as inhibition of phosphatase activity by measuring p-nitrophenyl phosphate at 6.7 microg/ml measured after 60 mins; settings: dose 6.7 µg/ml
[3] = biological target: T2, Receptor-type tyrosine-protein phosphatase C (Homo sapiens) (UniProt P08575); assay: Inhibition of human recombinant CD45 expressed in Escherichia coli assessed as inhibition of phosphatase activity by measuring p-nitrophenyl phosphate at 6.7 microg/ml measured after 60 mins; settings: dose 6.7 µg/ml
T2 sequence (whole entry): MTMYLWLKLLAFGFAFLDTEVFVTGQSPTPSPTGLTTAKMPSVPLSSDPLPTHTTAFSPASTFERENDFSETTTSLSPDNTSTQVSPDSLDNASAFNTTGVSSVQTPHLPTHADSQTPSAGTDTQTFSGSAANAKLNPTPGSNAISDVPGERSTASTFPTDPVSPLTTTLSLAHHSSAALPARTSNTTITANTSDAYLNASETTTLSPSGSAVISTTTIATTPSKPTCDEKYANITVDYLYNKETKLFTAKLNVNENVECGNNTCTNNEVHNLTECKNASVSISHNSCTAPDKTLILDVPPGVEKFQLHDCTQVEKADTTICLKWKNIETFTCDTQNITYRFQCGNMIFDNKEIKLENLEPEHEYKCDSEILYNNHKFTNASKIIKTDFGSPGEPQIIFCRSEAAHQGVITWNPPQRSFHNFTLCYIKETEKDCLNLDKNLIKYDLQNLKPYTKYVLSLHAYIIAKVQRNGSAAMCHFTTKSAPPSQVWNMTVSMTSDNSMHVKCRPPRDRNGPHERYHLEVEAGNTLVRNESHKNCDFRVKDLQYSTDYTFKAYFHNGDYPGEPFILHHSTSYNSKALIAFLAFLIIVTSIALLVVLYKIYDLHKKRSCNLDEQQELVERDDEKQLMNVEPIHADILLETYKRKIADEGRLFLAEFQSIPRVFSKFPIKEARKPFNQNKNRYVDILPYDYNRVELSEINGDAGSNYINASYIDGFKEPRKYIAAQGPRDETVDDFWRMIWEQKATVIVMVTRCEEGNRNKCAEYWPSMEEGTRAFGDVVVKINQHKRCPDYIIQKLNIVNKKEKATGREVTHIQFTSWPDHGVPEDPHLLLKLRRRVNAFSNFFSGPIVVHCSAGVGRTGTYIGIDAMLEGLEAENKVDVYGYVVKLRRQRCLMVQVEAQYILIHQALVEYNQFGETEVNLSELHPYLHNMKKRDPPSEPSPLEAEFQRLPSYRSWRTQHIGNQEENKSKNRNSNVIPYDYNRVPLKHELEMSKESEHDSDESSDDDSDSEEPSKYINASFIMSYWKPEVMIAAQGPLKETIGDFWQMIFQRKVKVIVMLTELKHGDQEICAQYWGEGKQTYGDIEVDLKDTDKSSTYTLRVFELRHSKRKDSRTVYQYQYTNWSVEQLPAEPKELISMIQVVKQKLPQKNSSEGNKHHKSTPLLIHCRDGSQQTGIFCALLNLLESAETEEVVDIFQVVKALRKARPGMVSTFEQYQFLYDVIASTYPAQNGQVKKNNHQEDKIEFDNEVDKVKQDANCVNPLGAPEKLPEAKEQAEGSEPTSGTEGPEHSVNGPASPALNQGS

[4] = biological target: T3, M-phase inducer phosphatase 2 (Homo sapiens, UniProt P30305); assay: Inhibition of human recombinant CDC25B expressed in Escherichia coli assessed as inhibition of phosphatase activity by measuring p-nitrophenyl phosphate measured after 60 mins
T3 sequence (P30305 whole entry): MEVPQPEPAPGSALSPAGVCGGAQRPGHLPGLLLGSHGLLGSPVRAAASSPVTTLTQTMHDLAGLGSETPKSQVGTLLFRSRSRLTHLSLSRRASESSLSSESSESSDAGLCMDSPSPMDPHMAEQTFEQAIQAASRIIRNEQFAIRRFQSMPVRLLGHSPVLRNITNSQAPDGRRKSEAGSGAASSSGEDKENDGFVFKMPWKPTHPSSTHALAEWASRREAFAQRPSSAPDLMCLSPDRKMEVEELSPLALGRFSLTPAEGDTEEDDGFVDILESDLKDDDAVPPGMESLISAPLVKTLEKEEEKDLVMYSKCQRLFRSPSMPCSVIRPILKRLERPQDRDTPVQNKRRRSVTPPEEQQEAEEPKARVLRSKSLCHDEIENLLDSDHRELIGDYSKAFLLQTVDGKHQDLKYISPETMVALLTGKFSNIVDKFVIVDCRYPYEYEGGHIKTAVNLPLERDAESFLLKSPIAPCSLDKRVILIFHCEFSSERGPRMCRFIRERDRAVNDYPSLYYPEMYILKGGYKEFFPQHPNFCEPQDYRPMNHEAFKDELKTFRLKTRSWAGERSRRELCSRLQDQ

3T3-L1 = assay: (§1) Reduction in intracellular triglyceride accumulation in mouse 3T3-L1 cells at 10 uM measured after 3 days; type: functional; settings: time 3.0 day
[5] = Reduction in intracellular triglyceride accumulation in mouse 3T3-L1 cells measured after 3 days; type: functional, cell-based; settings: 3T3-L1, 72 h
[6] = as §1; type: functional; set-up: scale not given: the % may be the effect or the level left; settings: time 3 day

Sequence of Tyrosine-protein phosphatase non-receptor type 6 (Homo sapiens) (P29350 whole entry): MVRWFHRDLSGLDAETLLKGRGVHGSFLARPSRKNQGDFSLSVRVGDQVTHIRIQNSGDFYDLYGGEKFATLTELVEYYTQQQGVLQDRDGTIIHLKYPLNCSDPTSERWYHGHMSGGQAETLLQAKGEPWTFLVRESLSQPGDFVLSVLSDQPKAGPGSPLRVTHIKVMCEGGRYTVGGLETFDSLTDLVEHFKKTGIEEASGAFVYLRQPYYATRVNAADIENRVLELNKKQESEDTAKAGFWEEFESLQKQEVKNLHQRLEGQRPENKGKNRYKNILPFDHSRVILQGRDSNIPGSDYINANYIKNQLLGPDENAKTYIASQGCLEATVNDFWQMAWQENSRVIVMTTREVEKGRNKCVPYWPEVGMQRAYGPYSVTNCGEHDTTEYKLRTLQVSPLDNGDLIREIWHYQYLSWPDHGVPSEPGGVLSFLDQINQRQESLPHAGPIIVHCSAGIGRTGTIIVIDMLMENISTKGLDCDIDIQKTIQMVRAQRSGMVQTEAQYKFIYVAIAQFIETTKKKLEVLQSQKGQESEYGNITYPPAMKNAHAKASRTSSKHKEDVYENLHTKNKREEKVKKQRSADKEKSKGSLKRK

| Structure (SMILES) | inhibition [1] [%] | inhibition [2] [%] | inhibition [3] [%] | IC50 [4] [µM] | IC50 [5] [µM] | Activity (3T3-L1) | Activity [6] [%] |
| --- | --- | --- | --- | --- | --- | --- | --- |
| COC(=O)[C@@]12[C@@]3(C)[C@@H]4C=C5C(=CC(=O)OC5(C)C)[C@@](C)(O)[C@@H]3C[C@@]3(C)C(=O)O[C@@H](O[C@@H](C)[C@@]1(O)O4)[C@@]23O | < 60 | < 60 | < 60 | 13 |  |  |  |
| CC1=C2CC(=O)OC(C)(C)C2=CC[C@@]2(C)[C@H]1C[C@@](C)(C(=O)O)[C@]13COC(=O)[C@@]12C(=O)[C@H](C)O3 | < 60 | < 60 | < 60 |  |  |  | <60 |
| COC(=O)[C@]12[C@@H]3[C@@H](O)O[C@@H](C)[C@@]14OC(=O)[C@]3(C)C[C@H]1C(C)=C3CC(=O)OC(C)(C)[C@@]35O[C@H]5[C@H](O4)[C@@]12C | < 60 | < 60 | < 60 |  | 21 | Active |  |
| CC1=C2CC(=O)OC(C)(C)[C@]23O[C@@H]3[C@@H]2O[C@@]3(O)[C@@H](C)O[C@H]4OC(=O)[C@]5(C)C[C@H]1[C@]2(C)[C@@]31C(=O)O[C@@]415 | < 60 | < 60 | < 60 |  | 37 | Active |  |
| COC(=O)[C@]12C(=O)[C@@](C)(O)C(=O)[C@](C)(C[C@H]3C(C)=C4CC(=O)OC(C)(C)C4=CC[C@@]31C)[C@]21CO1 | < 60 | < 60 | < 60 |  | 43 | Active |  |
| COC(=O)[C@]12[C@@H]3[C@H]4OC(=O)[C@]3(C)CC3=C(C)C5=C(C[C@H](O[C@]1(O)[C@H](C)O4)[C@@]32C)C(C)(C)OC(=O)C5 | < 60 | < 60 | < 60 |  |  |  |  |
| COC(=O)[C@]12C3=C(C)O[C@@H]4OC(=O)[C@](C)(C[C@H]5C(C)=C6CC(=O)O[C@@]6(C(C)(C)O)[C@@H](C[C@@]51C)O3)[C@@H]42 | < 60 | < 60 | < 60 |  |  |  |  |
| COC(=O)[C@]12C(=O)[C@H](C)O[C@@H]3OC(=O)[C@](C)(C[C@H]4C(C)=C5CC(=O)OC(C)(C)C5=CC[C@@]41C)[C@@H]32 [BERKELEYACETAL A] | < 60 | < 60 | < 60 |  |  |  | <60 |

The next lines start with results.

| inhibition [1] [%] | inhibition [2] [%] | inhibition [3] [%] | IC50 [4] [µM] | IC50 [5] [µM] | Structure (SMILES) | Activity (3T3-L1) | Activity [6] [%] |
| --- | --- | --- | --- | --- | --- | --- | --- |
| < 60 | < 60 | < 60 |  |  | COC(=O)CC1=C(C)[C@@H]2C[C@@]3(C)C(=O)O[C@H]4O[C@@H](C)[C@@]5(O)O[C@@H]([C@@H]6O[C@]16C(C)(C)O)[C@]2(C)[C@@]5(C(=O)OC)[C@]43O |  |  |
| < 60 | < 60 | < 60 |  |  | COC(=O)[C@]12[C@@H]3[C@H]4OC(=O)[C@]3(C)C[C@H]3C(C)=C5CC(=O)OC(C)(C)[C@@]56O[C@H]6[C@H](O[C@]1(O)[C@H](C)O4)[C@@]32C |  |  |
| < 60 | < 60 | < 60 |  | 29 | COC(=O)CC1=C(C)[C@H]2C[C@]3(C)C(=O)O[C@@H]4O[C@H](C)[C@]5(O)O[C@@H]([C@H]6O[C@@]16C(C)(C)O)[C@@]2(C)[C@@]51C(=O)O[C@@]413 | Active |  |
| < 60 | < 60 | < 60 |  |  | COC(=O)[C@]12C3=C(C)O[C@@H]4OC(=O)[C@](C)(C[C@H]5C(C)=C6CC(=O)O[C@@]6(C(C)(C)O)[C@H](O3)[C@H](O)[C@@]51C)[C@@H]42 |  |  |
| < 60 | < 60 | < 60 |  |  | COC(=O)CC1=C(C)[C@@H]2C[C@@]3(C)C(=O)O[C@H]4O[C@@H](C)[C@@]5(O)O[C@@H]([C@@H]6O[C@]16C(C)(C)O)[C@]2(C)[C@@]5(C(=O)OC)[C@H]43 |  |  |
